Experimental data taken from ChEMBL document CHEMBL1201862, “PubChem BioAssay data set” (2004).
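Compound exposure: 48 hours, 5 concentrations, 96-well plates. Abbreviation: GI50, concentration required for 50% inhibition of growth.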 Active and inactive are the calls of the source. Cut-off read from the data, not from the text of the source: active = GI50 up to about 1.1 µM and inactive = higher.

How the values were obtained:
Test in all cases: DTP human tumour cell line panel, 48 h
MOLT-4 = test system: MOLT-4
T47D = test system: T47D
RPMI-8226 = test system: RPMI-8226
SN12C = test system: SN12C
MCF7 = test system: MCF7
SNB-75 = test system: SNB-75
SW-620 = test system: SW-620
OVCAR-5 = test system: OVCAR-5
PC-3 = test system: PC-3
SK-MEL-28 = test system: SK-MEL-28
EKVX = test system: EKVX
K562 = test system: K562
UACC-62 = test system: UACC-62
OVCAR-4 = test system: OVCAR-4
MDA-N = test system: MDA-N
HCT-116 = test system: HCT-116
HOP-62 = test system: HOP-62
SF-539 = test system: SF-539
SK-MEL-2 = test system: SK-MEL-2
SF-268 = test system: SF-268
TK-10 = test system: TK-10
KM12 = test system: KM12
Hs-578T = test system: Hs-578T
NCI/ADR-RES = test system: NCI/ADR-RES
NCI-H522 = test system: NCI-H522
HT-29 = test system: HT-29
SK-OV-3 = test system: SK-OV-3
BT-549 = test system: BT-549
IGROV-1 = test system: IGROV-1
MDA-MB-231 = test system: MDA-MB-231
SR = test system: SR
ACHN = test system: ACHN
MDA-MB-435 = test system: MDA-MB-435
U-251 = test system: U-251
OVCAR-8 = test system: OVCAR-8
SK-MEL-5 = test system: SK-MEL-5
OVCAR-3 = test system: OVCAR-3
SNB-19 = test system: SNB-19
LOX IMVI = test system: LOX IMVI
NCI-H23 = test system: NCI-H23
UACC-257 = test system: UACC-257
CAKI-1 = test system: CAKI-1
A498 = test system: A498
COLO 205 = test system: COLO 205
HCC 2998 = test system: HCC 2998
UO-31 = test system: UO-31
A549 = test system: A549
NCI-H226 = test system: NCI-H226
NCI-H460 = test system: NCI-H460
DU-145 = test system: DU-145
HCT-15 = test system: HCT-15
786-0 = test system: 786-0
SF-295 = test system: SF-295
HL-60 = test system: HL-60
M14 = test system: M14
CCRF-CEM = test system: CCRF-CEM
Malme-3M = test system: Malme-3M
RXF 393 = test system: RXF 393

Question: `COC(=O)C1Cc2cc3c(cc2C1=O)CCCC3` (stereo not given) was tested. Which GI50 (MOLT-4) did it give?
Answer: 41.2 µM (inactive)

Question: What about the GI50 (T47D) of the same molecule?
Answer: 37.6 µM (inactive)

Question: And the GI50 (RPMI-8226)?
Answer: 45.9 µM (inactive)

Question: What about the GI50 (SN12C) of the same molecule?
Answer: 77.4 µM (inactive)

Question: What about the GI50 (MCF7) of the same molecule?
Answer: 42 µM (inactive)

Question: What about the GI50 (SNB-75) of the same molecule?
Answer: 70.3 µM (inactive)

Question: And the GI50 (SW-620)?
Answer: 47 µM (inactive)

Question: And the GI50 (OVCAR-5)?
Answer: 72.9 µM (inactive)

Question: And the GI50 (PC-3)?
Answer: 30.8 µM (inactive)

Question: What about the GI50 (SK-MEL-28) of the same molecule?
Answer: > 100 µM (inactive)

Question: What about the GI50 (EKVX) of the same molecule?
Answer: 46.8 µM (inactive)

Question: What about the GI50 (K562) of the same molecule?
Answer: 33.6 µM (inactive)

Question: What about the GI50 (UACC-62) of the same molecule?
Answer: > 100 µM (inactive)

Question: And the GI50 (OVCAR-4)?
Answer: 64.9 µM (inactive)

Question: What about the GI50 (MDA-N) of the same molecule?
Answer: > 100 µM (inactive)

Question: What about the GI50 (HCT-116) of the same molecule?
Answer: 42.3 µM (inactive)

Question: And the GI50 (HOP-62)?
Answer: 48.6 µM (inactive)

Question: What about the GI50 (SF-539) of the same molecule?
Answer: > 100 µM (inactive)

Question: And the GI50 (SK-MEL-2)?
Answer: > 100 µM (inactive)

Question: What about the GI50 (SF-268) of the same molecule?
Answer: 62.1 µM (inactive)

Question: What about the GI50 (TK-10) of the same molecule?
Answer: 28 µM (inactive)

Question: What about the GI50 (KM12) of the same molecule?
Answer: 34.3 µM (inactive)

Question: And the GI50 (Hs-578T)?
Answer: 48.4 µM (inactive)

Question: What about the GI50 (NCI/ADR-RES) of the same molecule?
Answer: 48.9 µM (inactive)

Question: And the GI50 (NCI-H522)?
Answer: 80.5 µM (inactive)

Question: What about the GI50 (HT-29) of the same molecule?
Answer: 61.8 µM (inactive)

Question: And the GI50 (SK-OV-3)?
Answer: 27.1 µM (inactive)

Question: And the GI50 (BT-549)?
Answer: 22.3 µM (inactive)

Question: And the GI50 (IGROV-1)?
Answer: 67.5 µM (inactive)

Question: And the GI50 (MDA-MB-231)?
Answer: 63.7 µM (inactive)

Question: What about the GI50 (SR) of the same molecule?
Answer: 30.3 µM (inactive)

Question: And the GI50 (ACHN)?
Answer: 94.6 µM (inactive)

Question: And the GI50 (MDA-MB-435)?
Answer: > 100 µM (inactive)

Question: What about the GI50 (U-251) of the same molecule?
Answer: 43.5 µM (inactive)

Question: What about the GI50 (OVCAR-8) of the same molecule?
Answer: 46.6 µM (inactive)

Question: And the GI50 (SK-MEL-5)?
Answer: 48 µM (inactive)

Question: What about the GI50 (OVCAR-3) of the same molecule?
Answer: > 100 µM (inactive)

Question: And the GI50 (SNB-19)?
Answer: 56.5 µM (inactive)

Question: What about the GI50 (LOX IMVI) of the same molecule?
Answer: 67 µM (inactive)

Question: And the GI50 (NCI-H23)?
Answer: 43.2 µM (inactive)

Question: What about the GI50 (UACC-257) of the same molecule?
Answer: > 100 µM (inactive)

Question: And the GI50 (CAKI-1)?
Answer: 54.1 µM (inactive)

Question: What about the GI50 (A498) of the same molecule?
Answer: 53.5 µM (inactive)

Question: What about the GI50 (COLO 205) of the same molecule?
Answer: > 100 µM (inactive)

Question: And the GI50 (HCC 2998)?
Answer: > 100 µM (inactive)

Question: And the GI50 (UO-31)?
Answer: 51.9 µM (inactive)

Question: What about the GI50 (A549) of the same molecule?
Answer: > 100 µM (inactive)

Question: What about the GI50 (NCI-H226) of the same molecule?
Answer: 23.8 µM (inactive)

Question: And the GI50 (NCI-H460)?
Answer: > 100 µM (inactive)

Question: What about the GI50 (DU-145) of the same molecule?
Answer: 45.8 µM (inactive)

Question: And the GI50 (HCT-15)?
Answer: 43.2 µM

Question: What about the GI50 (786-0) of the same molecule?
Answer: 66.5 µM (inactive)

Question: And the GI50 (SF-295)?
Answer: 62.1 µM (inactive)

Question: What about the GI50 (HL-60) of the same molecule?
Answer: 29.2 µM (inactive)

Question: What about the GI50 (M14) of the same molecule?
Answer: > 100 µM (inactive)

Question: And the GI50 (CCRF-CEM)?
Answer: 37.2 µM (inactive)

Question: And the GI50 (Malme-3M)?
Answer: > 100 µM (inactive)

Question: `N#Cc1ccc(-c2nc3c(N)ncnc3o2)cc1` was tested. Which GI50 (MOLT-4) did it give?
Answer: > 100 µM (inactive)

Question: What about the GI50 (T47D) of the same molecule?
Answer: > 100 µM (inactive)

Question: And the GI50 (RPMI-8226)?
Answer: > 100 µM (inactive)

Question: What about the GI50 (SN12C) of the same molecule?
Answer: > 100 µM (inactive)

Question: And the GI50 (MCF7)?
Answer: > 100 µM (inactive)

Question: What about the GI50 (RXF 393) of the same molecule?
Answer: > 100 µM (inactive)

Question: And the GI50 (SW-620)?
Answer: > 100 µM (inactive)

Question: What about the GI50 (OVCAR-5) of the same molecule?
Answer: > 100 µM (inactive)

Question: And the GI50 (PC-3)?
Answer: > 100 µM (inactive)

Question: What about the GI50 (SK-MEL-28) of the same molecule?
Answer: > 100 µM (inactive)

Question: What about the GI50 (EKVX) of the same molecule?
Answer: > 100 µM (inactive)

Question: And the GI50 (K562)?
Answer: > 100 µM (inactive)

Question: What about the GI50 (UACC-62) of the same molecule?
Answer: > 100 µM (inactive)

Question: And the GI50 (MDA-N)?
Answer: > 100 µM (inactive)

Question: And the GI50 (HCT-116)?
Answer: > 100 µM (inactive)

Question: And the GI50 (HOP-62)?
Answer: 84.7 µM (inactive)

Question: What about the GI50 (SF-539) of the same molecule?
Answer: > 100 µM (inactive)

Question: And the GI50 (SK-MEL-2)?
Answer: > 100 µM (inactive)

Question: What about the GI50 (SF-268) of the same molecule?
Answer: > 100 µM (inactive)

Question: What about the GI50 (TK-10) of the same molecule?
Answer: > 100 µM (inactive)

Question: And the GI50 (KM12)?
Answer: > 100 µM (inactive)

Question: What about the GI50 (Hs-578T) of the same molecule?
Answer: > 100 µM (inactive)

Question: What about the GI50 (NCI/ADR-RES) of the same molecule?
Answer: > 100 µM (inactive)

Question: What about the GI50 (NCI-H522) of the same molecule?
Answer: > 100 µM (inactive)

Question: What about the GI50 (HT-29) of the same molecule?
Answer: > 100 µM (inactive)

Question: And the GI50 (BT-549)?
Answer: > 100 µM (inactive)

Question: And the GI50 (IGROV-1)?
Answer: > 100 µM (inactive)

Question: And the GI50 (MDA-MB-231)?
Answer: > 100 µM (inactive)

Question: What about the GI50 (SR) of the same molecule?
Answer: > 100 µM (inactive)

Question: What about the GI50 (ACHN) of the same molecule?
Answer: 75 µM (inactive)

Question: What about the GI50 (MDA-MB-435) of the same molecule?
Answer: > 100 µM (inactive)

Question: And the GI50 (OVCAR-8)?
Answer: > 100 µM (inactive)

Question: And the GI50 (SK-MEL-5)?
Answer: > 100 µM (inactive)

Question: What about the GI50 (OVCAR-3) of the same molecule?
Answer: > 100 µM (inactive)

Question: What about the GI50 (SNB-19) of the same molecule?
Answer: > 100 µM (inactive)

Question: And the GI50 (LOX IMVI)?
Answer: > 100 µM (inactive)

Question: What about the GI50 (NCI-H23) of the same molecule?
Answer: > 100 µM (inactive)

Question: What about the GI50 (UACC-257) of the same molecule?
Answer: > 100 µM (inactive)

Question: What about the GI50 (CAKI-1) of the same molecule?
Answer: > 100 µM (inactive)

Question: What about the GI50 (A498) of the same molecule?
Answer: > 100 µM (inactive)

Question: What about the GI50 (COLO 205) of the same molecule?
Answer: > 100 µM (inactive)

Question: What about the GI50 (HCC 2998) of the same molecule?
Answer: > 100 µM (inactive)

Question: And the GI50 (UO-31)?
Answer: > 100 µM (inactive)

Question: And the GI50 (A549)?
Answer: > 100 µM (inactive)

Question: What about the GI50 (NCI-H226) of the same molecule?
Answer: > 100 µM (inactive)

Question: What about the GI50 (NCI-H460) of the same molecule?
Answer: > 100 µM (inactive)

Question: And the GI50 (DU-145)?
Answer: > 100 µM (inactive)

Question: What about the GI50 (HCT-15) of the same molecule?
Answer: > 100 µM

Question: What about the GI50 (786-0) of the same molecule?
Answer: 63.8 µM (inactive)

Question: What about the GI50 (SF-295) of the same molecule?
Answer: > 100 µM (inactive)

Question: What about the GI50 (HL-60) of the same molecule?
Answer: > 100 µM (inactive)

Question: And the GI50 (M14)?
Answer: > 100 µM (inactive)

Question: What about the GI50 (CCRF-CEM) of the same molecule?
Answer: > 100 µM (inactive)
